From publication PMC7419507, “In vitro Cas9-assisted editing of modular polyketide synthase genes to produce desired natural product derivatives” (Nature Communications, 2020)
Values joined by “and” are separate entries in the source; they are usually repeats but may differ in a detail not shown here. Identical values can stand only once.

Key:
Type in all cases: cell-based
[1] = system: Jurkat, SKOV-3 and MESO-1 cells; test: Cytotoxicity assay, statements for all tested cell lines together; conditions: Jurkat, SKOV-3 and MESO-1 cells, 72 h
Method: Jurkat cells were cultured in RPMI1640 medium supplemented with 10% foetal bovine serum, penicillin (50 U/ml), streptomycin (50 μg/ml), and Glutamax. SKOV-3 cells were cultured in DMEM medium supplemented with 10% fetal bovine serum, penicillin (50 U/ml), and streptomycin (50 μg/ml). MESO-1 cells were cultured in RPMI1640 medium supplemented with 10% fetal bovine serum, penicillin (50 U/ml), and streptomycin (50 μg/ml). All cell lines were seeded in a 384-well plate at a density of 1000 cells/well in 20 μl of media and incubated at 37 °C in a humidified incubator with 5% CO2. After 4 h, 2-fold dilution samples resolved in DMSO were added to the cell culture at the concentration of 0.5% (0.1 μl) and incubated for 72 h. Cell viabilities were measured using a CellTiter-Glo luminescent cell viability assay and EnVision multilabel plate reader.

[2] = Cytotoxicity assay (CellTiter-Glo, 72 h), MESO-1; conditions: human, MESO-1 malignant pleural mesothelioma cells, raw replicate data, read-out: MESO1 viability (%); for viability at 72 h, 9.53674e-05 uM: conc 9.53674e-5 uM; for viability at 72 h, 0.000190735 uM: conc 0.000190735 uM; for viability at 72 h, 0.00038147 uM: conc 0.00038147 uM; for viability at 72 h, 0.000762939 uM: conc 0.000762939 uM; for viability at 72 h, 0.00152588 uM: conc 0.00152588 uM; for viability at 72 h, 0.00305176 uM: conc 0.00305176 uM; for viability at 72 h, 0.00610352 uM: conc 0.00610352 uM; for viability at 72 h, 0.012207 uM: conc 0.012207 uM; for viability at 72 h, 0.0244141 uM: conc 0.0244141 uM; for viability at 72 h, 0.0488281 uM: conc 0.0488281 uM; for viability at 72 h, 0.0976562 uM: conc 0.0976562 uM; for viability at 72 h, 0.195312 uM: conc 0.195312 uM; for viability at 72 h, 0.390625 uM: conc 0.390625 uM; for viability at 72 h, 0.78125 uM: conc 0.78125 uM; for viability at 72 h, 1.5625 uM: conc 1.5625 uM; for viability at 72 h, 3.125 uM: conc 3.125 uM; for viability at 72 h, 6.25 uM: conc 6.25 uM; for viability at 72 h, 12.5 uM: conc 12.5 uM; for viability at 72 h, 25 uM: conc 25 uM; for viability at 72 h, 50 uM: conc 50 uM
Outline: (§1)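 1000 cells/well; 4 h settle, then 2-fold serial dilutions (0.5% DMSO final), 72 h, 37 °C/5% CO2. Read-out: CellTiter-Glo luminescence. Media: RPMI1640 + 10% FBS (Jurkat, MESO-1; Jurkat also Glutamax), DMEM + 10% FBS (SKOV-3).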

[3] = system: malignant pleural mesothelioma MESO-1 cells; test: Cytotoxicity assay (CellTiter-Glo, 72 h), MESO-1; conditions: raw replicate data
Outline: as §1

Question: With CO[C@H]1C[C@@H]2CC[C@@H](C)[C@@](O)(O2)C(=O)C(=O)N2CCCC[C@H]2C(=O)O[C@H]([C@H](C)C[C@@H]2CC[C@@H](O)[C@H](OC)C2)CC(=O)[C@H](C)/C=C(\C)[C@@H](O)CC[C@H](C)/C=C/C=C/C=C/1C [Compound 7] as the compound, how does the “Effect on cell viability, in words” value [1] read?
Answer: slightly suppressed the cell viabilities

Question: What about the viability at 72 h, 9.53674e-05 uM [2] of the same compound?
Answer: 96.8%

Question: What about the viability at 72 h, 0.000190735 uM [2] of the same compound?
Answer: 92.7%

Question: What about the viability at 72 h, 0.00038147 uM [2] of the same compound?
Answer: 98.8%

Question: And the viability at 72 h, 0.000762939 uM [2]?
Answer: 94.4%

Question: And the viability at 72 h, 0.00152588 uM [2]?
Answer: 97.9%

Question: What about the viability at 72 h, 0.00305176 uM [2] of the same compound?
Answer: 90.7%

Question: What about the viability at 72 h, 0.00610352 uM [2] of the same compound?
Answer: 100%

Question: And the viability at 72 h, 0.012207 uM [2]?
Answer: 86%

Question: And the viability at 72 h, 0.0244141 uM [2]?
Answer: 90.4%

Question: What about the viability at 72 h, 0.0488281 uM [2] of the same compound?
Answer: 80.8%

Question: What about the viability at 72 h, 0.0976562 uM [2] of the same compound?
Answer: 78.6%

Question: And the viability at 72 h, 0.195312 uM [2]?
Answer: 68.6%

Question: What about the viability at 72 h, 0.390625 uM [2] of the same compound?
Answer: 71.6%

Question: And the viability at 72 h, 0.78125 uM [2]?
Answer: 67.7%

Question: What about the viability at 72 h, 1.5625 uM [2] of the same compound?
Answer: 70.1%

Question: And the viability at 72 h, 3.125 uM [2]?
Answer: 60.8%

Question: And the viability at 72 h, 6.25 uM [2]?
Answer: 67.3%

Question: And the viability at 72 h, 12.5 uM [2]?
Answer: 66.3%

Question: And the viability at 72 h, 25 uM [2]?
Answer: 64.4%

Question: What about the viability at 72 h, 50 uM [2] of the same compound?
Answer: 23.2%

Question: What about the “MESO1 viability (%)” value ([3]; conc 9.53674e-5 uM) of the same compound?
Answer: 102.2% and 99.0%

Question: What about the “MESO1 viability (%)” value ([3]; conc 0.000190735 uM) of the same compound?
Answer: 96.1%

Question: What about the “MESO1 viability (%)” value ([3]; conc 0.00038147 uM) of the same compound?
Answer: 98.4% and 104.2%

Question: And the “MESO1 viability (%)” value ([3]; conc 0.000762939 uM)?
Answer: 97.5%

Question: What about the “MESO1 viability (%)” value ([3]; conc 0.00152588 uM) of the same compound?
Answer: 94.3% and 98.4%

Question: And the “MESO1 viability (%)” value ([3]; conc 0.00305176 uM)?
Answer: 93.1% and 92.8%

Question: What about the “MESO1 viability (%)” value ([3]; conc 0.00610352 uM) of the same compound?
Answer: 98.2%

Question: And the “MESO1 viability (%)” value ([3]; conc 0.012207 uM)?
Answer: 92.2% and 89.5%

Question: And the “MESO1 viability (%)” value ([3]; conc 0.0244141 uM)?
Answer: 87.8%

Question: And the “MESO1 viability (%)” value ([3]; conc 0.0488281 uM)?
Answer: 86.4% and 84.2%

Question: And the “MESO1 viability (%)” value ([3]; conc 0.0976562 uM)?
Answer: 76.6% and 76.8%

Question: And the “MESO1 viability (%)” value ([3]; conc 0.195312 uM)?
Answer: 70.4% and 63.5%

Question: What about the “MESO1 viability (%)” value ([3]; conc 0.390625 uM) of the same compound?
Answer: 69.2% and 71.3%

Question: And the “MESO1 viability (%)” value ([3]; conc 0.78125 uM)?
Answer: 64.7% and 62.9%

Question: And the “MESO1 viability (%)” value ([3]; conc 1.5625 uM)?
Answer: 70.0% and 72.7%

Question: And the “MESO1 viability (%)” value ([3]; conc 3.125 uM)?
Answer: 62.1% and 64.7%

Question: What about the “MESO1 viability (%)” value ([3]; conc 6.25 uM) of the same compound?
Answer: 67.5% and 72.2%

Question: What about the “MESO1 viability (%)” value ([3]; conc 12.5 uM) of the same compound?
Answer: 60.9% and 63.2%

Question: And the “MESO1 viability (%)” value ([3]; conc 25 uM)?
Answer: 63.3% and 65.2%

Question: And the “MESO1 viability (%)” value ([3]; conc 50 uM)?
Answer: 30.2% and 20.1%

Question: What does the source list for COC1CC2CCC(C)C(O)(O2)C(=O)C(=O)N2CCCCC2C(=O)OC(C(C)CC2CCC(O)C(OC)C2)CC(O)CC(=O)C(C)C=C(C)C(O)CC(=O)C(C)CC(C)C=CC=CC=C1C (stereo not shown) [Compound 13]?
Answer: Effect on cell viability, in words [1]: slightly suppressed the cell viabilities; viability at 72 h, 9.53674e-05 uM [2]: 107%; viability at 72 h, 0.000190735 uM [2]: 109%; viability at 72 h, 0.00038147 uM [2]: 103%; viability at 72 h, 0.000762939 uM [2]: 96.5%; viability at 72 h, 0.00152588 uM [2]: 103%; viability at 72 h, 0.00305176 uM [2]: 101%; viability at 72 h, 0.00610352 uM [2]: 108%; viability at 72 h, 0.012207 uM [2]: 101%; viability at 72 h, 0.0244141 uM [2]: 95.9%; viability at 72 h, 0.0488281 uM [2]: 92.5%; viability at 72 h, 0.0976562 uM [2]: 82%; viability at 72 h, 0.195312 uM [2]: 74.6%; viability at 72 h, 0.390625 uM [2]: 77.6%; viability at 72 h, 0.78125 uM [2]: 68.5%; viability at 72 h, 1.5625 uM [2]: 71.4%; viability at 72 h, 3.125 uM [2]: 70.6%; viability at 72 h, 6.25 uM [2]: 68.1%; viability at 72 h, 12.5 uM [2]: 69.4%; viability at 72 h, 25 uM [2]: 61.7%; viability at 72 h, 50 uM [2]: 32.5%; MESO1 viability (%) ([3]; conc 9.53674e-5 uM): 98.4% and 101.6%; MESO1 viability (%) ([3]; conc 0.000190735 uM): 99.7% and 102.2%; MESO1 viability (%) ([3]; conc 0.00038147 uM): 106.9% and 102.5%; MESO1 viability (%) ([3]; conc 0.000762939 uM): 98.2% and 93.2%; MESO1 viability (%) ([3]; conc 0.00152588 uM): 104.8% and 103.9%; MESO1 viability (%) ([3]; conc 0.00305176 uM): 98.6% and 103.9%; MESO1 viability (%) ([3]; conc 0.00610352 uM): 105.0% and 100.2%; MESO1 viability (%) ([3]; conc 0.012207 uM): 91.1%; MESO1 viability (%) ([3]; conc 0.0244141 uM): 101.5% and 98.1%; MESO1 viability (%) ([3]; conc 0.0488281 uM): 89.5% and 85.7%; MESO1 viability (%) ([3]; conc 0.0976562 uM): 82.3% and 85.5%; MESO1 viability (%) ([3]; conc 0.195312 uM): 72.4% and 76.8%; MESO1 viability (%) ([3]; conc 0.390625 uM): 77.4% and 73.9%; MESO1 viability (%) ([3]; conc 0.78125 uM): 67.0% and 66.3%; MESO1 viability (%) ([3]; conc 1.5625 uM): 65.2% and 74.0%; MESO1 viability (%) ([3]; conc 3.125 uM): 66.5% and 63.4%; MESO1 viability (%) ([3]; conc 6.25 uM): 73.7% and 75.2%; MESO1 viability (%) ([3]; conc 12.5 uM): 72.5% and 66.5%; MESO1 viability (%) ([3]; conc 25 uM): 64.3% and 66.3%; MESO1 viability (%) ([3]; conc 50 uM): 29.9% and 28.1%
